# Like-named read-outs stand apart in the source and are kept apart here.
# Molecular target: T1, CFTR (Homo sapiens, UniProt P13569, DEL508-508)
# T1 construct: endogenous in cells; host or cells: primary human bronchial epithelial cells from CF subjects (F508del/MF-HBE), differentiated at air-liquid interface
# Test: HBE assay: Ussing chamber assay of CFTR-mediated short-circuit currents
# Type: cell-based
# Conditions: for EC50: read-out: HBE EC50; for activation at 10 µM: read-out: HBE Activity at 10 μM (%)
# Method in brief: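 CFTR-mediated Isc (μA/cm²) equals the peak response to apical 20 μM forskolin minus the residual after a 20 μM each BPO/GlyH-101/CFTR inhibitor 172 cocktail, recorded in Ussing chambers at Vhold 0 mV, 37 °C, pH 7.4, with 30 μM apical amiloride. Cells were F508del/MF HBE cultures preincubated 18-24 h with corrector (concentration range or 10 μM) plus 1 μM ivacaftor in 20% human serum.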
# [1] = Table 10, read-out: HBE Max activity (%)
# [2] = Table 12, read-out: HBE Max Activity (%)
# [3] = Table 13, read-out: HBE Max Activity (%)
# T1 sequence (P13569 with tags, fused parts or gaps DEL508-508): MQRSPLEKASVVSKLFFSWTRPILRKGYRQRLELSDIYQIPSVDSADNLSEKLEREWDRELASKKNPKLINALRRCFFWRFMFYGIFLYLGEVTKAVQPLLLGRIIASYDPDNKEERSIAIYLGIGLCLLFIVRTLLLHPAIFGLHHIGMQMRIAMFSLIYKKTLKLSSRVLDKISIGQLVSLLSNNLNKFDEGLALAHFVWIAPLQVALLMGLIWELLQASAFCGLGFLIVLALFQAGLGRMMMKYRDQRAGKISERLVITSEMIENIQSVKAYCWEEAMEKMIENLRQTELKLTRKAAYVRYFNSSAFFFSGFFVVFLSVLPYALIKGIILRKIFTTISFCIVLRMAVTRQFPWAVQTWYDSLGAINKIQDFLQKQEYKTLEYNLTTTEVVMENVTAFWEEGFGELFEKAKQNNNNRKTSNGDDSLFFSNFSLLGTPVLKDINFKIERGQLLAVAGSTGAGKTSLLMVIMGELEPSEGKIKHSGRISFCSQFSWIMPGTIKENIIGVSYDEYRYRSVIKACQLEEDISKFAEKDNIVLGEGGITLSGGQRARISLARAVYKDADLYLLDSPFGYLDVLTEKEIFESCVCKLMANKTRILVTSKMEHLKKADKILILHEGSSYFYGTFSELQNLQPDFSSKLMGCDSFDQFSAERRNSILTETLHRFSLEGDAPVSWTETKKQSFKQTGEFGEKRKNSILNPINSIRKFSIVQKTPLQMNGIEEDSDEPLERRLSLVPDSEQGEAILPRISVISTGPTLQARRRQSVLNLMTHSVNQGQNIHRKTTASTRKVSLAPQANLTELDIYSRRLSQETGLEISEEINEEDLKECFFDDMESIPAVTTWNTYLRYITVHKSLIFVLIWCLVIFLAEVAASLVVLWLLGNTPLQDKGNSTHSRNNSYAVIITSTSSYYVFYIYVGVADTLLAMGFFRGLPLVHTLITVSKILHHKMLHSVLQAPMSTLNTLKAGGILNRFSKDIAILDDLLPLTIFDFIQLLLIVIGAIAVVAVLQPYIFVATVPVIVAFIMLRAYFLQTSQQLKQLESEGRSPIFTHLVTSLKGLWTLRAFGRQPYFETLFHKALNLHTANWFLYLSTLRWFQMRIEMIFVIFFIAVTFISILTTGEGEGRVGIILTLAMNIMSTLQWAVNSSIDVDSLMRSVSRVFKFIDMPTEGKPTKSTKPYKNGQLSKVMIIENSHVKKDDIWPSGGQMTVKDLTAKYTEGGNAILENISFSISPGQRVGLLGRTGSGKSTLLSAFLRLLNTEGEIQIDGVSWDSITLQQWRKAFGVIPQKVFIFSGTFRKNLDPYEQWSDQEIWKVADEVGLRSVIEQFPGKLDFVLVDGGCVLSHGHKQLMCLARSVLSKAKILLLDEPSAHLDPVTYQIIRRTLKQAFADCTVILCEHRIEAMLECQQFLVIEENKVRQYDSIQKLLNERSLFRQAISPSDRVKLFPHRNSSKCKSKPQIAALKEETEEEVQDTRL
smiles,measurement,setting,value
"Cc1cccc(C)c1-c1cc2nc(n1)NS(=O)(=O)c1cccc(c1)C(=O)N(Cc1ccc(-c3cncnc3)cc1)[C@H](CC(C)(C)C)CO2 [Compound 144, (11R)-6-(2,6-dimethylphenyl)-11-(2,2-dimethylpropyl)-2,2-dioxo-12-[(4-pyrimidin-5-ylphenyl)methyl]-9-oxa-2λ^6-thia-3,5,12,19-tetrazatricyclo[12.3.1.14,8]nonadeca-1(18),4(19),5,7,14,16-hexaen-13-one]",EC50,Table 10,< 1000 nM
same,Emax,[1],> 60%
"Cc1cccc(C)c1-c1cc2nc(n1)NS(=O)(=O)c1cccc(c1)C(=O)N(Cc1ccc(-c3cnc(O)nc3)cc1)[C@H](CC(C)(C)C)CO2 [Compound 145, (11R)-6-(2,6-dimethylphenyl)-11-(2,2-dimethylpropyl)-12-[[4-(2-hydroxypyrimidin-5-yl)phenyl]methyl]-2,2-dioxo-9-oxa-2λ^6-thia-3,5,12,19-tetrazatricyclo[12.3.1.14,8]nonadeca-1(18),4(19),5,7,14,16-hexaen-13-one]",EC50,Table 10,1000 to 3000 nM
same,Emax,[1],> 60%
"Cc1cccc(C)c1-c1cc2nc(n1)NS(=O)(=O)c1cccc(c1)C(=O)N(Cc1ccc(N3CC(=O)NC3=O)cc1)[C@H](CC(C)(C)C)CO2 [Compound 146, 1-[4-[[(11R)-6-(2,6-Dimethylphenyl)-11-(2,2-dimethylpropyl)-2,2,13-trioxo-9-oxa-2λ^6-thia-3,5,12,19-tetrazatricyclo[12.3.1.14,8]nonadeca-1(18),4(19),5,7,14,16-hexaen-12-yl]methyl]phenyl]imidazolidine-2,4-dione]",EC50,Table 10,1000 to 3000 nM
same,Emax,[1],> 60%
"Cc1cccc(C)c1-c1cc2nc(n1)NS(=O)(=O)c1cccc(c1)C(=O)N(Cc1ccccc1-c1cn[nH]c1)[C@H](CC(C)(C)C)CO2 [Compound 147, (11R)-6-(2,6-dimethylphenyl)-11-(2,2-dimethylpropyl)-12-{[2-(1H-pyrazol-4-yl)phenyl]methyl}-9-oxa-2λ^6-thia-3,5,12,19-tetraazatricyclo[12.3.1.14,8]nonadeca-1(17),4,6,8(19),14(18),15-hexaene-2,2,13-trione]",EC50,Table 10,< 1000 nM
same,Emax,[1],> 60%
"Cc1cccc(C)c1-c1cc2nc(n1)NS(=O)(=O)c1cccc(c1)C(=O)N(Cc1cccc(N3CC(=O)NC3=O)c1)[C@H](CC(C)(C)C)CO2 [Compound 148, 1-[3-[[(11R)-6-(2,6-Dimethylphenyl)-11-(2,2-dimethylpropyl)-2,2,13-trioxo-9-oxa-2λ^6-thia-3,5,12,19-tetrazatricyclo[12.3.1.14,8]nonadeca-1(18),4(19),5,7,14,16-hexaen-12-yl]methyl]phenyl]imidazolidine-2,4-dione]",EC50,Table 10,1000 to 3000 nM
same,Emax,[1],> 60%
"Cc1cccc(C)c1-c1cc2nc(n1)NS(=O)(=O)c1cccc(c1)C(=O)N(Cc1ncc(N3CC4(CCC4)C3)cn1)[C@H](CC(C)(C)C)CO2 [Compound 155, (11R)-12-[[5-(2-Azaspiro[3.3]heptan-2-yl)pyrimidin-2-yl]methyl]-6-(2,6-dimethylphenyl)-11-(2,2-dimethylpropyl)-2,2-dioxo-9-oxa-2λ^6-thia-3,5,12,19-tetrazatricyclo[12.3.1.14,8]nonadeca-1(18),4(19),5,7,14,16-hexaen-13-one]",EC50,Table 12,< 1000 nM
same,Emax,[2],> 60%
"Cc1cccc(C)c1-c1cc2nc(n1)NS(=O)(=O)c1cccc(c1)C(=O)N(Cc1ccc(C3CC(C)(C)CO3)cn1)[C@H](CC(C)(C)C)CO2 (stereo partly drawn) [Compound 156, (11R)-6-(2,6-Dimethylphenyl)-11-(2,2-dimethylpropyl)-12-[[5-(4,4-dimethyltetrahydrofuran-2-yl)-2-pyridyl]methyl]-2,2-dioxo-9-oxa-2λ6-thia-3,5,12,19-tetrazatricyclo[12.3.1.14,8]nonadeca-1(18),4(19),5,7,14,16-hexaen-13-one]",EC50,Table 12,< 1000 nM
same,Emax,[2],> 60%
"Cc1cccc(C)c1-c1cc2nc(n1)NS(=O)(=O)c1cccc(c1)C(=O)N(Cc1ccc(C3CC4(C3)CC(C)(C)C4)cn1)[C@H](CC(C)(C)C)CO2 [Compound 157, (11R)-6-(2,6-Dimethylphenyl)-11-(2,2-dimethylpropyl)-12-[[5-(2,2-dimethylspiro[3.3]heptan-6-yl)-2-pyridyl]methyl]-2,2-dioxo-9-oxa-2λ6-thia-3,5,12,19-tetrazatricyclo[12.3.1.14,8]nonadeca-1(18),4(19),5,7,14,16-hexaen-13-one]",EC50,Table 13,< 1000 nM
same,Emax,[3],> 60%
Cc1cccc(C)c1-c1cc2nc(n1)NS(=O)(=O)c1cccc(c1)C(=O)N(Cc1ncc(C3CC(C)(C)C3)cn1)[C@H](CC(C)(C)C)CO2 [Compound 158],EC50,Table 13,< 1000 nM
same,Emax,[3],> 60%
Cc1cccc(C)c1-c1cc2nc(n1)NS(=O)(=O)c1cccc(c1)C(=O)N(Cc1ccc(C3CC(C)(C)C3)cn1)[C@H](CC(C)(C)C)CO2 [Compound 159],EC50,Table 13,< 1000 nM
same,Emax,[3],> 60%
Cc1cccc(C)c1-c1cc2nc(n1)NS(=O)(=O)c1cccc(c1)C(=O)N(Cc1ncc(C3CC4(CCC4)C3)cn1)[C@H](CC(C)(C)C)CO2 [Compound 160],EC50,Table 13,< 1000 nM
same,Emax,[3],> 60%
Cc1cccc(C)c1-c1cc2nc(n1)NS(=O)(=O)c1cccc(c1)C(=O)N(Cc1ncc(C3CC4(COC4)C3)cn1)[C@H](CC(C)(C)C)CO2 [Compound 161],EC50,Table 13,< 1000 nM
same,Emax,[3],> 60%
Cc1cccc(C)c1-c1cc2nc(n1)NS(=O)(=O)c1cccc(c1)C(=O)N(Cc1ncc(C3CC4(C3)CC(C)(C)C4)cn1)[C@H](CC(C)(C)C)CO2 [Compound 162],EC50,Table 13,< 1000 nM
same,Emax,[3],> 60%
Cc1cccc(C)c1-c1cc2nc(n1)NS(=O)(=O)c1cccc(c1)C(=O)N(Cc1ccc(C3CC4(CCC4)C3)cn1)[C@H](CC(C)(C)C)CO2 [Compound 163],EC50,Table 13,1000 to 3000 nM
same,Emax,[3],> 60%
Cc1cccc(C)c1-c1cc2nc(n1)NS(=O)(=O)c1cccc(c1)C(=O)N(Cc1ccc(C3CC4(COC4)C3)cn1)[C@H](CC(C)(C)C)CO2 [Compound 164],EC50,Table 13,< 1000 nM
same,Emax,[3],> 60%
Cc1cccc(C)c1-c1cc2nc(n1)NS(=O)(=O)c1cccc(c1)C(=O)N(CC(=O)N1CCC3(CCC3)C1)[C@H](CC(C)(C)C)CO2 [Compound 165],activation at 10 µM,Table 13,> 600%
Cc1cccc(C)c1-c1cc2nc(n1)NS(=O)(=O)c1cccc(c1)C(=O)N(CC(=O)NCCN1CCOCC1)[C@H](CC(C)(C)C)CO2 [Compound 166],activation at 10 µM,Table 12,> 600%
Cc1cccc(C)c1-c1cc2nc(n1)NS(=O)(=O)c1cccc(c1)C(=O)N(Cc1nc(C(C)(C)C)co1)[C@H](CC(C)(C)C)CO2 [Compound 167],activation at 10 µM,Table 12,> 600%
Cc1cccc(C)c1-c1cc2nc(n1)NS(=O)(=O)c1cccc(c1)C(=O)N(CC(=O)N1Cc3ccccc3C1)[C@H](CC(C)(C)C)CO2 [Compound 168],activation at 10 µM,Table 13,> 600%
Cc1cccc(C)c1-c1cc2nc(n1)NS(=O)(=O)c1cccc(c1)C(=O)N(CC(=O)N1CCCC3(CCC3)C1)[C@H](CC(C)(C)C)CO2 [Compound 169],activation at 10 µM,Table 13,> 600%
Cc1cccc(C)c1-c1cc2nc(n1)NS(=O)(=O)c1cccc(c1)C(=O)N(CC(=O)N1CC3(CCC3)C1)[C@H](CC(C)(C)C)CO2 [Compound 170],activation at 10 µM,Table 13,30 to 60%
Cc1cccc(C)c1-c1cc2nc(n1)NS(=O)(=O)c1cccc(c1)C(=O)N(CC(=O)NC1CC3(CCC3)C1)[C@H](CC(C)(C)C)CO2 [Compound 171],activation at 10 µM,Table 13,> 600%
Cc1cccc(C)c1-c1cc2nc(n1)NS(=O)(=O)c1cccc(c1)C(=O)N(CC(=O)N(C)C1CCC(C)(C)CC1)[C@H](CC(C)(C)C)CO2 [Compound 172],activation at 10 µM,Table 13,> 600%
Cc1cccc(C)c1-c1cc2nc(n1)NS(=O)(=O)c1cccc(c1)C(=O)N(CC(=O)NC1CCC13CCC3)[C@H](CC(C)(C)C)CO2 (stereo partly shown) [Compound 173],activation at 10 µM,Table 13,> 600%
Cc1cccc(C)c1-c1cc2nc(n1)NS(=O)(=O)c1cccc(c1)C(=O)N(Cc1ncc(C(C)(C)C)s1)[C@H](CC(C)(C)C)CO2 [Compound 174],activation at 10 µM,Table 12,> 600%
Cc1cccc(C)c1-c1cc2nc(n1)NS(=O)(=O)c1cccc(c1)C(=O)N(CC(=O)NC1CCCC(C)(C)C1)[C@H](CC(C)(C)C)CO2 (stereo partly shown) [Compound 175],activation at 10 µM,Table 13,> 600%
Cc1cccc(C)c1-c1cc2nc(n1)NS(=O)(=O)c1cccc(c1)C(=O)N(CC(=O)N1CCCCC1c1ccccc1F)[C@H](CC(C)(C)C)CO2 (stereo partly shown) [Compound 176],activation at 10 µM,Table 13,> 600%
Cc1cccc(C)c1-c1cc2nc(n1)NS(=O)(=O)c1cccc(c1)C(=O)N(CC(=O)N1CCCCC1c1ccc(F)cc1)[C@H](CC(C)(C)C)CO2 (stereo partly shown) [Compound 177],activation at 10 µM,Table 13,> 600%
Cc1cccc(C)c1-c1cc2nc(n1)NS(=O)(=O)c1cccc(c1)C(=O)N(CC(=O)NC1CCCCC1(C)C)[C@H](CC(C)(C)C)CO2 (stereo partly shown) [Compound 178],activation at 10 µM,Table 13,> 600%
Cc1cccc(C)c1-c1cc2nc(n1)NS(=O)(=O)c1cccc(c1)C(=O)N(CC(=O)NC1CCC(C)(C)CC1)[C@H](CC(C)(C)C)CO2 [Compound 179],activation at 10 µM,Table 13,> 600%
Cc1cccc(C)c1-c1cc2nc(n1)NS(=O)(=O)c1cccc(c1)C(=O)N(CC(=O)N1CCC[C@@H](c3ccccc3)C1)[C@H](CC(C)(C)C)CO2 [Compound 180],activation at 10 µM,Table 13,> 600%
Cc1cccc(C)c1-c1cc2nc(n1)NS(=O)(=O)c1cccc(c1)C(=O)N(CC(=O)N1C[C@H](C)C[C@H](C)C1)[C@H](CC(C)(C)C)CO2 [Compound 181],activation at 10 µM,Table 13,> 600%
Cc1cccc(C)c1-c1cc2nc(n1)NS(=O)(=O)c1cccc(c1)C(=O)N(CC(=O)N(C)C1CCOCC1)[C@H](CC(C)(C)C)CO2 [Compound 182],activation at 10 µM,Table 13,> 600%
Cc1cccc(C)c1-c1cc2nc(n1)NS(=O)(=O)c1cccc(c1)C(=O)N(CC(=O)N1CCC3(CCCC3)CC1)[C@H](CC(C)(C)C)CO2 [Compound 183],activation at 10 µM,Table 13,> 600%

# Reference: patent US20240150377A1, “MODULATORS OF CYSTIC FIBROSIS TRANSMEMBRANE CONDUCTANCE REGULATOR” (VERTEX PHARMACEUTICALS INCORPORATED, priority 2020, published 2024)
